Results on 23 compounds are retold here after US20250270202A1, “SUBSTITUTED 4-AMINOISOINDOLINE COMPOUND, PREPARATION METHOD THEREFOR, PHARMACEUTICAL COMPOSITION THEREOF, AND USE THEREOF” (SHANGHAI INSTITUTE OF MATERIA MEDICA, CHINESE ACADEMY OF …, priority 2022, published 2025).

Common to all, as to assay type: cell-based
The subject of test [1] is MM.1S cells. Nature of the test: Effect of the compound on MM.1S cell proliferation (MTS, 7 days). To be noted: Homo sapiens, MM1.S. How it is done: MM.1S cells were cultured in 1640 medium supplemented with 10% fetal bovine serum, then collected and diluted to the desired cell concentration after 7 days of treatment. A total of 180 μL of cell suspension was added to each well in a 96-well cell plate, ensuring 20,000 cells per well. For the control group, 20 μL of 0.2% DMSO was added to each well. Compounds were diluted in a 5-step gradient from a 10 mM stock solution, and 20 μL of each dilution was added to the compound-containing wells (with a final DMSO concentration of 0.2%). The cells were incubated in a 37° C., 5% CO2 incubator for 7 days. Afterward, 20 μL of the MTS reagent (Promega, G5430) was added to each well, followed by incubation for 3-4 hours in a 37° C., 5% CO2 incubator. Absorbance at 490 nm was measured using a microplate reader, with 690 nm absorbance as the background. The final raw data was calculated as OD490-OD690. The compound inhibition rate was calculated using the formula: […]
The IC50 for the compound's proliferative inhibition was fitted using GraphPad Prism 5.0. The experiment was repeated three times, and the average and standard deviation were calculated using three parallel experiments per trial.

In test [2] the test system is Mino cells. Description: Inhibition of cell proliferation of Mino cells (MTS, 3 days). The settings on record: Homo sapiens, MINO. How it is done:
Mino cells were cultured with RPMI-1640 medium supplemented with 15% fetal bovine serum, and collected. The cell concentration was diluted according to a 3-day treatment period, and 90 μL of the cell suspension was added to each well of a 96-well plate, resulting in 8000 cells per well. For control wells, 10 μL of DMSO at a final concentration of 0.2% was added. The compounds were diluted in a 5-fold gradient from a 10 mM stock solution, and 10 μL of each compound solution was added to the experimental wells (with a final DMSO concentration of 0.2%). The cells were incubated in a 37° C., 5% CO2 incubator for 3 days. After preparing the reaction mixture using the MTS reagent kit (Promega, G5430), 20 μL was added to each well, and the cells were incubated for 3-4 hours at 37° C., 5% CO2.
The absorbance at 490 nm was read using a microplate reader, with the absorbance at 690 nm used as the background. The final raw data was calculated as OD490-OD690. The inhibition rate of the compounds was calculated using the formula: Inhibition rate=(OD DMSO−OD compound)/(OD DMSO−OD blank)×100%. The IC50 values for cell proliferation inhibition of the compounds were fitted using GraphPad Prism 5.0. The experiment was repeated three times, with the average and standard deviation calculated from three parallel experiments each time.

Test [3] deals with MV-4-11 cells. Description: Inhibition of MV-4-11 cell proliferation (MTS, 7 days). To be noted: Homo sapiens. On the procedure: MV-4-11 cells were cultured in IMDM with 10% fetal bovine serum, collected, and diluted to the appropriate cell concentration for a 7-day treatment period. A 96-well plate was used, and 180 μL of cell suspension was added to each well, resulting in a cell count of 2,000 per well. For the control wells, 20 μL of DMSO at a final concentration of 0.2% was added. The compounds were diluted from a 10 mM stock solution in a five-fold gradient, and 20 μL was added to the compound wells (with a final DMSO concentration of 0.2%). The cells were incubated in a 37° C., 5% CO2 incubator for 7 days. After preparing the reaction solution using the MTS reagent kit (Promega, G5430), 20 μL was added to each well, and the cells were incubated in the incubator for 3-4 hours. The absorbance at 490 nm was measured using a microplate reader, with the absorbance at 690 nm as the background value. The final data was calculated as OD490-OD690. The inhibition rate of the compounds was calculated using the formula: […]
The IC50 values for proliferation inhibition were calculated using GraphPad Prism 5.0. The experiments were repeated three times, with three parallel experiments for each, and the mean and standard deviation were calculated.
The cell activity test results are shown in Table 3: A indicates IC50<1 μM, B indicates 1 µM≤IC50≤20 μM, and C indicates IC50>20 μM.

The mark [4] stands for this setting: 168 h, 7 days, MTS, Table 1, read-out: MM.1S Cells Inhibition Activity IC50.
Where [5] appears, read: 72 h, 3 days, MTS, Table 2, read-out: Mino Cells Inhibition Activity IC50.
Where [6] appears, read: MV4-11, 168 h, 7 days, MTS, Table 3, read-out: MV-4-11 Cells Inhibition Activity IC50.
Setting [7] is: Table 4, read-out: Inhibitory Activity of Compounds on Cell Proliferation MM.1S IC50.
Setting [8] is: Table 4, read-out: Inhibitory Activity of Compounds on Cell Proliferation Mino IC50.

Molecules are shown by their SMILES. Like-named read-outs stand apart in the source and are kept apart here.

`O=C1CCC(N2C(=O)c3cccc(NCc4cnc(-c5ccc(Cl)cc5Cl)o4)c3C2=O)C(=O)N1` (stereo not drawn) [Example 76, 4-(((2-(2,4-Dichlorophenyl)oxazol-5-yl)methyl)amino)-2-(2,6-Dioxopiperidin-3-yl)isoindolin-1,3-dione]: the figures for the IC50 in test [1] (setting [4]), in test [2] (setting [5]) and in test [3] (setting [6]) were 30 to 150 nM, over 120 nM and under 1 µM, respectively.
The matching figures for `O=C1CCC(N2C(=O)c3cccc(NCc4cnc(-c5ccc(Cl)cn5)s4)c3C2=O)C(=O)N1` (stereo not drawn) [Example 43]: under 15 nM, over 120 nM and under 1 µM.
The matching figures for `N#Cc1ccc(N2CCN(Cc3ncc(CNc4cccc5c4C(=O)N(C4CCC(=O)NC4=O)C5=O)o3)CC2)c(F)c1` (stereo not drawn) [Example 81]: 30 to 150 nM, over 120 nM and 1 to 20 µM.
As to `O=C1CCC(N2C(=O)c3cccc(NCc4ncc(-c5ccc(Cl)cc5)o4)c3C2=O)C(=O)N1` (stereo not drawn) [Example 64, 4-(((5-(4-Chlorophenyl)oxazol-2-yl)methyl)amino)-2-(2,6-Dioxopiperidin-3-yl)isoindolin-1,3-dione], the IC50 in test [1] (setting [4]) was under 15 nM; in test [2] (setting [5]) it was over 120 nM; in test [3] (setting [6]), under 1 µM.
The matching figures for `O=C1CCC(N2C(=O)c3cccc(NCc4cnc(C5CCN(C(=O)C6(C(F)(F)F)CCC6)CC5)o4)c3C2=O)C(=O)N1` (stereo not drawn) [Example 4]: under 15 nM, under 60 nM and under 1 µM.
The matching figures for `O=C1CCC(N2C(=O)c3cccc(NCc4nnc(-c5ccccc5)o4)c3C2=O)C(=O)N1` (stereo not drawn) [Example 98, 2-(2,6-Dioxopiperidine-3-yl)-4-(((5-Phenyl-1,3,4-oxadiazol-2-yl)methyl)amino)isoindoline-1,3-dione]: 15 to 30 nM, over 120 nM and 1 to 20 µM.
On the same counts, the results for `O=C1CCC(N2C(=O)c3cccc(NCc4cnc(C5CCN(C(=O)c6ccc(Cl)cc6Cl)CC5)o4)c3C2=O)C(=O)N1` (stereo not drawn) [Example 8] are 15 to 30 nM, 60 to 120 nM and under 1 µM.
On to `O=C1CCC(N2C(=O)c3cccc(NCc4cnc(-c5ccccc5Cl)o4)c3C2=O)C(=O)N1` (stereo not drawn) [Example 27], for which the IC50 in test [1] (setting [4]) is under 15 nM; in test [2] (setting [5]), 60 to 120 nM; in test [3] (setting [6]) it was under 1 µM.
For `O=C1CCC(N2C(=O)c3cccc(NCc4cnc(-c5ccc(Cl)cc5)o4)c3C2=O)C(=O)N1` (stereo not drawn) [Example 25], the IC50 in test [1] (setting [4]) is under 15 nM; in test [1] (setting [7]), under 15 nM; in test [2] (setting [5]), under 60 nM; in test [2] (setting [8]), under 60 nM; in test [3] (setting [6]) it was under 1 µM; in test [3] (MV4-11, Table 4, values in μM, read-out: Inhibitory Activity of Compounds on Cell Proliferation MV-4-11 IC50), under 1 µM.
As to `O=C1CCC(N2Cc3c(NCc4cn(-c5ccc(Cl)cc5)nn4)cccc3C2=O)C(=O)N1` (stereo not drawn) [Example Ctrl-4, reference compound], the IC50 was over 15 nM in test [1] (setting [7]); over 5000 nM in test [2] (setting [8]); over 20 µM in test [3] (MV4-11, Table 4, values in nM, read-out: Inhibitory Activity of Compounds on Cell Proliferation MV-4-11 IC50).
Take `Cc1ccc(-c2ncc(CNc3cccc4c3C(=O)N(C3CCC(=O)NC3=O)C4=O)o2)cc1` (stereo not drawn) [Example 19]: the IC50 in test [1] (setting [4]) was under 15 nM; in test [2] (setting [5]), under 60 nM; in test [3] (setting [6]) it was under 1 µM.
In the case of `O=C1CCC(N2C(=O)c3cccc(NCc4cnc(-c5ccc(OC(F)(F)F)cc5)s4)c3C2=O)C(=O)N1` (stereo not drawn) [Example 35], the IC50 in test [1] (setting [4]) was under 15 nM; in test [2] (setting [5]), under 60 nM; in test [3] (setting [6]) it was under 1 µM.
The matching figures for `COc1ccc(-c2ncc(CNc3cccc4c3C(=O)N(C3CCC(=O)NC3=O)C4=O)o2)cc1` (stereo not drawn) [Example 16]: under 15 nM, under 60 nM and under 1 µM.
With `O=C1CCC(N2C(=O)c3cccc(NCc4cnc(-c5cccc(OC6CC6)c5)o4)c3C2=O)C(=O)N1` (stereo not drawn) [Example 96, 4-(((2-(Cyclopropoxyphenyl)oxazol-5-yl)methyl)amino)-2-(2,6-Dioxopiperidine-3-yl)isoindoline-1,3-dione], the IC50 in test [1] (setting [4]) is under 15 nM; in test [2] (setting [5]) it was over 120 nM; in test [3] (setting [6]), under 1 µM.
On the same counts, the results for `O=C1CCC(N2C(=O)c3cccc(NCc4cnc([C@H]5CC[C@@H](Cc6ccc(F)cc6)CC5)o4)c3C2=O)C(=O)N1` (stereo partly drawn) [Example 105, 2-(2,6-Dioxopiperidine-3-yl)-4-(((2-((1S,4S)-4-(4-Fluorobenzyl)cyclohexyl)oxazol-5-yl)methyl)amino)isoindoline-1,3-dione] are over 150 nM, over 120 nM and 1 to 20 µM.
The matching figures for `O=C1CCC(N2C(=O)c3cccc(NCc4ncc(-c5cccc(Cl)c5)o4)c3C2=O)C(=O)N1` (stereo not drawn) [Example 65, 4-(((5-(3-Chlorophenyl)oxazol-2-yl)methyl)amino)-2-(2,6-Dioxopiperidin-3-yl)isoindolin-1,3-dione]: 30 to 150 nM, over 120 nM and under 1 µM.
As for `O=C1CCC(N2C(=O)c3cccc(NCc4ncc(-c5ccccc5Cl)o4)c3C2=O)C(=O)N1` (stereo not drawn) [Example 66, 4-(((5-(2-Chlorophenyl)oxazol-2-yl)methyl)amino)-2-(2,6-Dioxopiperidin-3-yl)isoindolin-1,3-dione], the IC50 in test [1] (setting [4]) is 30 to 150 nM; in test [2] (setting [5]), over 120 nM; in test [3] (setting [6]), under 1 µM.
On the same counts, the results for `O=C1CCC(N2C(=O)c3cccc(NCc4ncc(-c5ccc(C(F)(F)F)cc5)o4)c3C2=O)C(=O)N1` (stereo not drawn) [Example 60] are 15 to 30 nM, over 120 nM and 1 to 20 µM.
`O=C1CCC(N2C(=O)c3cccc(NCc4cnc(-c5ccccc5OC5CC5)o4)c3C2=O)C(=O)N1` (stereo not drawn) [Example 97, 4-(((2-(2-Cyclopropoxyphenyl)oxazol-5-yl)methyl)amino)-2-(2,6-Dioxopiperidine-3-yl)isoindoline-1,3-dione]: the IC50 is under 15 nM in test [1] (setting [4]), over 120 nM in test [2] (setting [5]) and 1 to 20 µM in test [3] (setting [6]).
With `CC1(C(=O)N2CCC(c3ncc(CNc4cccc5c4C(=O)N(C4CCC(=O)NC4=O)C5=O)o3)CC2)CCCCC1` (stereo not drawn) [Example 10], the figures for the IC50 in test [1] (setting [4]), in test [2] (setting [5]) and in test [3] (setting [6]) were under 15 nM, 60 to 120 nM and 1 to 20 µM, respectively.
As for `CC(C)(C)C(=O)OCN1C(=O)CCC(N2C(=O)c3cccc(NCc4cnc(-c5ccc(Cl)cc5)o4)c3C2=O)C1=O` (stereo not drawn) [Example 40, (3-(4-(((2-(4-Chlorophenyl)-5-oxazolyl)methyl)amino)-1,3-dioxoisoindol-2-yl)-2,6-dioxopiperidin-1-yl)methyl Neopentyl Ester], the IC50 in test [1] (setting [4]) is 30 to 150 nM; in test [2] (setting [5]) it was over 120 nM; in test [3] (setting [6]), under 1 µM.
The matching figures for `O=C1CCC(N2C(=O)c3cccc(NCc4ncc(-c5ccccc5C(F)(F)F)o4)c3C2=O)C(=O)N1` (stereo not drawn) [Example 62]: over 150 nM, over 120 nM and 1 to 20 µM.
On to `O=C1CCC(N2C(=O)c3cccc(NCc4cnc(C5CCN(C(=O)C6(c7ccc(F)cc7)CCC6)CC5)o4)c3C2=O)C(=O)N1` (stereo not drawn) [Example 2], for which the IC50 in test [1] (setting [4]) was under 15 nM; in test [2] (setting [5]), under 60 nM; in test [3] (setting [6]) it was under 1 µM.
